Values of other authors in patent US10584074B2, “Microencapsulated nitrification inhibitor compositions” (Dow AgroSciences LLC, priority 2017, dated 2020).

Settings: at 23° Celsius

## Clc1cccc(C(Cl)(Cl)Cl)n1 [nitrapyrin, 2-chloro-6-(trichloromethyl)pyridine]
  vapor pressure: 2.8×10^−3 mm Hg
